For one data set, the target named is Etf-1 (Ehrlichia chaffeensis, UniProt Q2GG12). Description: FP assay of Etf-1 binding with FAM-labeled peptides.
Data set [1] deals with E. chaffeensis. Kind of data set: morphological examination of E. chaffeensis infection of THP-1 cells by Diff-Quik staining.
In data set [2] the test system is E. chaffeensis. Kind of data set: E. chaffeensis infection of THP-1 cells, qPCR of 16S rRNA gene normalized to human actin. The format is cell-based, Ehrlichia chaffeensis.
For the next data set, the system named is Etf-1-GFP. Kind of data set: mitochondrial localization of ectopically expressed Etf-1-GFP in RF/6A cells. It is filed as cell-based, Ehrlichia chaffeensis. To be noted: 10 μM, 2 days. As for the experimental part: For mitochondria localization analysis, RF/6A cells were seeded onto a cover glass in a 12-well plate for 3 h, then infected with E. chaffeensis at ∼30 MOI. Alternatively, cells were transfected with Etf-1-GFP or Etf-1-DsRed plasmids using Fugene HD (Promega) or by electroporation at 100 V and 1,000 µF using the Gene Pulser Xcell System (BioRad) according to the manufacturers’ instructions ([16]). […] To examine the roles of macrocyclic peptides on Etf-1 localization on E. chaffeensis inclusions, infected RF/6A cells were treated with 10 μM peptides at 3 h pi for 2 days. At 2 days pi or pt, cells were washed 3 times with PBS, then fixed in 4% PFA for 20 min. Native Etf-1 and mitochondria marker cytochrome C proteins were labeled with rabbit anti-Etf-1 IgG and mouse anti-cytochrome C, then with AF488-conjugated goat anti-rabbit and anti-mouse secondary antibodies in PGS (PBS with 0.1% gelatin and 0.1% saponin) for 1 h each at RT. Host-cell and Ehrlichial DNAs were stained with 300 nM DAPI, and fluorescence with differential interference contrast images were observed and captured with a DeltaVision deconvolution microscope (Applied Precision, Issaquah, WA, USA). Percentages of Etf-1 protein colocalization with macrocyclic peptides or E. chaffeensis inclusions were quantified by counting 10–20 cells per group from three independent experiments.

“Also recorded” adds a separate entry of the source. Starred links: 1 amine or outer side, 2 acyl side, 3 side chain; linkers in the order of their positions; H or OH if unused. Positions of bridges follow the written chain, without caps; N, C: chain ends. Non-standard residues stand in square brackets, D forms with d. Residues, ends and D or L forms follow the SMILES beside them. Trimesoyl = O=C(c1cc(C(=O)[*:2])cc(C(=O)[*:3])c1)[*:1]; d2Nal = N[C@H](Cc1ccc2ccccc2c1)C(=O)O; Dap = NC[C@H](N)C(=O)O

Etf-1, sequence (Q2GG12 entry or part of it): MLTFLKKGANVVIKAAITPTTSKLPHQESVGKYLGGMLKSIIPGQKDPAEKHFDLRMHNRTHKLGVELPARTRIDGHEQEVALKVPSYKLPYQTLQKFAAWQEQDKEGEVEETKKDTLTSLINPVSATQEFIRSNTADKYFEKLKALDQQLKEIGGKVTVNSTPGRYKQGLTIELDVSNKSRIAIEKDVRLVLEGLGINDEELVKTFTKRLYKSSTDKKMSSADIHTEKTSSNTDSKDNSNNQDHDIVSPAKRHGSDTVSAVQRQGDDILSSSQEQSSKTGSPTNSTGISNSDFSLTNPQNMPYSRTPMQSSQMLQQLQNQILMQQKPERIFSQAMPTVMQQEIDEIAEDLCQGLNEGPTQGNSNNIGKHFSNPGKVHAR

In general, Kd refers to the constant that tells how readily two partners part at equilibrium. A low value points to tighter binding. On Etf-1, `CC(C)C[C@H]1NC(=O)[C@H](CO)NC(=O)[C@H]2CCCN2C(=O)[C@H](CCC(N)=O)NC(=O)[C@H](Cc2c[nH]cn2)NC(=O)[C@H](Cc2ccc(O)cc2)NC(=O)c2cc3cc(c2)C(=O)NC[C@H](NC1=O)C(=O)N[C@@H](Cc1ccccc1)C(=O)N[C@H](Cc1ccc2ccccc2c1)C(=O)N[C@H](CCCNC(=N)N)C(=O)N[C@@H](CCCNC(=N)N)C(=O)N[C@H](CCCNC(=N)N)C(=O)N[C@@H](CCCNC(=N)N)C(=O)N[C@H](C(N)=O)CNC3=O` [Peptide B7, TMA-Tyr-His-Gln-pro-Ser-leu-Dap-Phe-nal-arg-Arg-arg-Arg-Dap] (YHQ[dP]S[dL][Dap]F[d2Nal][dR]R[dR]R[Dap]-NH2; linker N-7-14 via Trimesoyl) yielded a Kd of 6.5 ± 0.7 µM. For the same molecule, the “E. chaffeensis infection (numbers and sizes of morulae)” value in the data set on E. chaffeensis [1] (THP-1 cells, Fig. S4 (with Figs. 5, S3)) is on record as “significantly inhibited; also recorded: potent inhibition”. The “cytotoxicity (cell lysis in treated groups)” value in the data set on E. chaffeensis [1] (THP-1 host cells) is listed as “least cytotoxicity”. The “inhibition of E. chaffeensis infection” value in the data set with E. chaffeensis [2] (10 μM, 2 days, vs DMSO control) is reported as “significantly inhibited”. Also, the “dose dependence of inhibition of E. chaffeensis infection” value in the data set on E. chaffeensis [2] (1, 5, and 10 μM) was “dose-dependent manner”. Moreover, the “effect on mitochondrial localization of Etf-1-GFP” value in the data set with Etf-1-GFP is listed as “neither peptide B7 nor C17 affected mitochondrial localization”.

These data come from PMC9982066, “Inhibition of Ehrlichia chaffeensis infection by cell-permeable macrocyclic peptides that bind type IV secretion effector Etf-1” (PNAS Nexus, 2023).
